Test results: PMC6385118, “Korean Thistle (Cirsium japonicum var. maackii (Maxim.) Matsum.): A Potential Dietary Supplement against Diabetes and Alzheimer’s Disease” (Molecules, 2019)
Where two headings read alike, the source gives them in different places.

Columns and labels:
[1] = DPPH radical scavenging activity; details: for DPPH Inhibition (%), Mean ± SD: at 5 µM; for EC50: mean ± SD of triplicates
Description: DPPH radical scavenging activity were carried out using procedures previously described with slight modifications. Shortly, 160 µL of sample solutions/positive control (ascorbic acid) were mixed with 40 µL of DPPH solution and incubated at room temperature for 30 min. After that, absornace were measured at 520 nm using a microplate reader spectrophotometer VERSAmax (Molecular Devices).

human recombinant PTP1B = target: T1, human recombinant PTP1B (Homo sapiens, UniProt P18031); assay: In vitro PTP1B inhibitory activity assay (p-NPP substrate); type: biochemical; details: mean ± SD of triplicates
T1 construct: purchased Biomol International, LLP (Plymouth Meeting, PA, USA)
T1 sequence (P18031 1-435): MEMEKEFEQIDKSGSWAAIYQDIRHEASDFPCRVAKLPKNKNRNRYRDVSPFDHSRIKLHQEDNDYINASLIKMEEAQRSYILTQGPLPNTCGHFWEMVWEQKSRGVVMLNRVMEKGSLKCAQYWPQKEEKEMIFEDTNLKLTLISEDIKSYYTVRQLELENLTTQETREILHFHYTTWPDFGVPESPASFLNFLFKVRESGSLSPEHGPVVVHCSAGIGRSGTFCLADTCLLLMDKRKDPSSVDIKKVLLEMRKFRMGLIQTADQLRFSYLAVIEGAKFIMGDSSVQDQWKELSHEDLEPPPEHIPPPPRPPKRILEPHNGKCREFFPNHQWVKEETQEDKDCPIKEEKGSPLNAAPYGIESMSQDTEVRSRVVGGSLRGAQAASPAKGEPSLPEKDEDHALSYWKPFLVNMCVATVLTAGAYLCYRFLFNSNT
Description: The inhibitory activity of the isolated compounds against human recombinant PTP1B was evaluated using p-NPP as a substrate with slight modifications. […] After incubation, the reaction was ceased using 10 µL of stop solution (10 mM sodium hydroxide) and absorbance was measured at 405 nm.

BACE1 = target: T2, BACE1 (Homo sapiens, UniProt P56817); assay: In vitro BACE1 enzyme assay (FRET kit); type: biochemical
T2 construct: purchased PanVera Corp. (Madison, WI, USA)
Description: Each assay was carried out according to the supplied instructions provided by the manufacturer with slight modifications. […] After incubation, the reaction was ceased using 10 µL of BACE1 stop solution and absorbance was measured at 545 nm […] and 585 nm (emission) wavelengths using microplate spectrofluorometer (Spectramax Gemini XPS, Molecular Devices).
(§1) The inhibition constant (Ki) and inhibition mode of α-glucosidase and BACE1 were calculated with Lineweaver-Burk and Dixon plots. […] Each graph was generated using SigmaPlot 12.0 (Systat Software Inc., San Jose, CA, USA) and GraphPad Prism 5 (GraphPad Prism Software, Inc., La Jolla, CA, USA).

[2] = Pro-oxidant assay (reducing power); details: ascorbic acid as positive control; Figure 3
Description: The pro-oxidant activity of isolated compounds were assessed with slight modifications. Shortly, 250 µL of sample solutions/positive control (ascorbic acid) dissolved in 0.2 M phosphate buffer (pH 6.6) and 25 µL of 1% potassium ferricyanide […] were incubated at 50 °C for 20 min. After that, an equal volume of 10% trichloroacetic acid was added and then centriguged at 3000 g for 10 min. The supernatant (500 µL) and distilled water (500 µL) was mixed followed by addition of 0.1% ferric chloride (0.1 mL). Immediately, absorbance were measured spectrophotometrically at 700 nm.

yeast α-glucosidase = assay: In vitro α-glucosidase inhibitory activity assay (p-NPG substrate); type: biochemical; details: for Ki: Dixon plot; for type of α-glucosidase inhibition (in words): Lineweaver-Burk and Dixon plots; for α-Glucosidase Inhibition (%), Mean ± SD: at 100 µM; for IC50: mean ± SD of triplicates
Description: The inhibitory activity against yeast α-glucosidase enzyme was carried out spectrophotometrically in a 96-well micro-plate reader (Molecular Devices, Sunnyvale, CA, USA), using a procedure reported by Li et al. with slight modifications. […] After 15 min of incubation, the reaction was ceased using 80 µL of stop solution (0.2 M sodium carbonate) and absorbance was measured at 405 nm.
as §1

[3] = Peroxynitrite (ONOO−) scavenging activity; details: for ONOO− Inhibition (%), Mean ± SD: at 5 µM; for EC50: mean ± SD of triplicates
Description: Peroxynitrite (ONOO^−) scavenging activity was carried ou with slight modifications. Shortly, 10 µL of sample solutions/positive control (penicillamine) were mixed with rhodamine buffer (pH 7.4) containing 50 mM sodium phosphate dibasic, 50 mM sodium phosphate monobasic, 90 mM sodium chloride, 5 mM potassium chloride, and 100 μM DTPA. The final DHR 123 concentration was 5 µM. The fluorescent intensities were measured after 5 min with/without authentic ONOO^− using a fluorescence microplate reader (Spectramax Gemini XPS, Molecular Devices) at wavelenghts of 485 and 530 nm of excitation and emission, respectively.

α-glucosidase = details: cited from earlier work
[4] = read-out: BACE1 Inhibition (%), Mean ± SD

T2 sequence (P56817 46-501): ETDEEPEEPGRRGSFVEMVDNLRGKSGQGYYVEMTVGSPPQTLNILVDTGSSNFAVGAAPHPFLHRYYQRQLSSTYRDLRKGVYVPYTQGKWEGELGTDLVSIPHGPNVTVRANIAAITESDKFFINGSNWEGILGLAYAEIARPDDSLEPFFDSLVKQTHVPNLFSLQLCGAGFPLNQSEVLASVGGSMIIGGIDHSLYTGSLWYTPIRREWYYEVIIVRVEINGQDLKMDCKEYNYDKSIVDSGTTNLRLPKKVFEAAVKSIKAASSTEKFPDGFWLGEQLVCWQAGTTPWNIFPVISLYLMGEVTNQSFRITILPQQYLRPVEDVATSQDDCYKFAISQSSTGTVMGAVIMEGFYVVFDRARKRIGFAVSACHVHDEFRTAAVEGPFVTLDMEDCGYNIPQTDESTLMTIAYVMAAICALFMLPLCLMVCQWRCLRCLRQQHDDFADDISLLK

Row | EC50 [1] [µM] | IC50 (human recombinant PTP1B) [µM] | Ki (yeast α-glucosidase) [µM] | type of α-glucosidase inhibition (in words) (yeast α-glucosidase) | α-Glucosidase Inhibition (%), Mean ± SD (yeast α-glucosidase) [%] | IC50 (yeast α-glucosidase) [µM] | EC50 [3] [µM] | SMILES | DPPH Inhibition (%), Mean ± SD [1] [%] | reducing power (pro-oxidant activity) [2] | ONOO− Inhibition (%), Mean ± SD [3] [%] | other results
1 | 21.35 ± 0.09 |  |  |  |  |  |  | O=C1O[C@H]([C@@H](O)CO)C(O)=C1O [Ascorbic acid, ascorbic acid, reference compound] | 18.72 ± 0.44 |  |  | 
2 | 4.76 ± 0.05 | > 400 | 272 | mixed type of inhibition | 14.02 ± 1.45 | 270 ± 4.69 | 0.5 ± 0.03 | O=c1cc(-c2ccc(O)c(O)c2)oc2cc(O)cc(O[C@@H]3O[C@H](CO)[C@@H](O)[C@H](O)[C@H]3O)c12 [Luteolin 5-O-β-D-glucopyranoside, luteolin 5-O-β-D-glucopyranoside] | 52.43 ± 0.53 | higher reducing power | 79.23 ± 4.95 | inhibition at 100 µM (BACE1; at 100 µM, read-out: BACE1 Inhibition (%), Mean ± SD): 17.5 ± 1.65%; IC50 (BACE1; mean ± SD of triplicates): 970 ± 7.83 µM
3 | 4.79 ± 0.19 | > 400 | 251 | competitive inhibition | 25.53 ± 1.21 | 249 ± 2.56 | 2.51 ± 0.05 | O=c1cc(-c2ccc(O)c(O)c2)oc2cc(O[C@@H]3O[C@H](CO)[C@@H](O)[C@H](O)[C@H]3O)cc(O)c12 [Luteolin 7-O-β-D-glucopyranoside, luteolin 7-O-β-D-glucopyranoside] | 58.97 ± 1.95 |  | 80.23 ± 4.22 | 
4 |  |  |  |  |  |  | 2.28 ± 0.02 | CC(C)(S)[C@@H](N)C(=O)O [Penicillamine, penicillamine, reference compound] |  |  | 56.57 ± 2.03 | 
5 |  |  |  |  |  |  |  | O=c1c(O)c(-c2ccc(O)c(O)c2)oc2cc(O)cc(O)c12 [Quercetin, quercetin, reference compound] |  |  |  | inhibition at 4.5 µg/mL (BACE1; [4]): 70 ± 3.91%; inhibition at 10 µM (BACE1; [4]): 67.6 ± 4.1%

Row | SMILES | EC50 [1] [µM] | IC50 (human recombinant PTP1B) [µM] | Ki (yeast α-glucosidase) [µM] | type of α-glucosidase inhibition (in words) (yeast α-glucosidase) | α-Glucosidase Inhibition (%), Mean ± SD (yeast α-glucosidase) [%] | IC50 (yeast α-glucosidase) [µM] | EC50 [3] [µM] | DPPH Inhibition (%), Mean ± SD [1] [%] | reducing power (pro-oxidant activity) [2] | ONOO− Inhibition (%), Mean ± SD [3] [%] | other results
6 | O=c1cc(-c2ccc(O)c(O)c2)oc2cc(O)cc(O)c12 [Luteolin, luteolin] | 3.05 ± 0.06 | > 400 | 52 | non-competitive | 69.12 ± 1.20 | 51.3 ± 1.23 | 0.86 ± 0.04 | 76.65 ± 0.73 | lower reducing power than positive control ascorbic acid | 85.21 ± 1.61 | α-glucosidase inhibition percentage (α-glucosidase; at 200 µM, mixed type (close to non-competitive), ref Tadera et al. [31]): 92%; α-glucosidase inhibition (α-glucosidase; at a concentration of 0.5 mg/mL, ref Kim et al. [32]): 36%; IC50 (α-glucosidase; mixed type inhibition, ref Xu et al. [35]): 18.6 µM; IC50 (α-glucosidase; non-competitive inhibition, ref Ha et al. [28]): 45.4 µM; IC50 (α-glucosidase; ref Proença et al. [34]): 46 ± 6 µM; IC50 (α-glucosidase; reversible, non-competitive, ref Yan et al. [29]): 172 µM; type of BACE1 inhibition (in words) (BACE1; Lineweaver-Burk and Dixon plots): non-competitive; inhibition at 100 µM (BACE1; [4]): 73.73 ± 0.57%; potency against α-glucosidase compared with the positive control, acarbose (yeast α-glucosidase; ratio of IC50 values): five-fold more potent
